Like-named read-outs stand apart in the source and are kept apart here.
What was measured:
hCaV3.2 = hCaV3.2 (Homo sapiens, UniProt O95180); assay: Inactivated channel state FLIPR assay, concentration-dependent inhibition of hCaV3.2; type: cell-based; details: for IC50: hCaV3.2, inactivated channel state FLIPR, n=4 wells per concentration; for slope of the concentration-inhibition curve: logistic function fit
fully kindled rats = assay: Amygdala kindling model, anti-seizure testing in fully kindled rats; type: in vivo, rat; details: for primary after discharge: all four doses of Z944, ETX 100 mg/kg, compared to vehicle (p>0.5)
Description: Animals were implanted with EEG recording electrodes and with a stimulating bipolar electrode in the left basolateral amygdaloid nucleus using the coordinates AP±3.0 mm, ML±5.9 mm, DV±6.0 mm. The after discharge threshold (ADT) for each animal was determined by administering a stimulation (frequency=60.1 Hz; duration=1000 μs) at one minute intervals until a seizure was clicited. The amplitude of the stimulation was started at 0.02 mA with increments of 0.02 mA; the stimulations were stopped when the animal experienced a seizure of ≥6 second duration, or if the amplitude of 0.40 mA was reached without the occurrence of a seizure. […] Kindling was performed twice a day for five days per week with an endpoint of 30 stimulations or until the animal presented five class V seizures (referred to as fully kindled). The seizure severity was classified from 0 (less severe) to V (most severe) according to the Racine Scale (Racine, 1972b). Sham kindled animals were handled the same way as the kindled animals, although no electrical stimulation was applied. An animal is classified as fully kindled once it has experienced 5 class V seizures.
Drug testing was performed twice a week until all animals had received each of the seven treatments, Z944 (5 mg/kg, 10 mg/kg, 30 mg/kg and 100 mg/kg), vehicle (10% DMSO/90% Na^+-CMC or CBZ vehicle 20% DMSO/40% propylene glycol/40% saline), ETX (100 mg/kg) or CBZ (30 mg/kg). Prior to drug testing each day, animals were subjected to a maximum of three pre-drug stimulations 30 minutes apart. The animals qualified for testing on that particular day if a class IV or V seizure was elicited in at least 2 out of 3 pre-drug stimulations. Stimulations consisted of a 1 second train of 1 ms biphasic square wave pulses at a frequency of 60 Hz with current amplitude based on each animal ADT that elicited a seizure. Thirty minutes after the last pre-drug stimulation, the animals received an IP injection of one of the seven treatments in a randomized manner at a dose volume of 5 ml/kg. Six post-drug stimulations were administered to each animal, the first stimulation was given 15 minutes post drug injection (to allow brain penetration of the drugs) and the following five stimulations were delivered in 30 minutes intervals thereafter with the seizure class elicited being recorded after each post-drug stimulation. The duration of the primary and total seizures, if any, were recorded. An investigator blinded to the drug treatment analyzed all EEG recordings. Primary after discharge is the duration of the seizure elicited from the kindling stimulation. Total after discharge is the total seizure duration including any secondary seizures that occur after the primary after discharge. Primary after discharge duration and total seizure duration were recorded and averaged for the 6 post-drug stimulations.
Animal weight and behaviour when handled were monitored for the duration of the experimental period. Additionally, animals were assessed by observation for any adverse effects of drugs on grooming, fur appearance, gait, and excretion.

post-SE rats [1] = assay: Morris water maze in post-SE rats; type: in vivo, rat; details: Z944 60 mg/kg/day, levetiracetam 200 mg/kg/day for 4 weeks
Description: All behavioural tests were performed in a light-controlled (˜110 lux), closed, quiet and clean room in the. Behavioural testing was performed in a blinded manner to the treatment groups. All of the behavioural tests were video recorded for future analysis. OF, EPM and MWM sessions were filmed using a digital camera mounted above the centre of the arena, which was connected to a computer for the recording and objective analysis of digitized behavioural tests (EthoVision 3.0.15, Noldus). The first behavioural test was performed one week after the last EEG recording. The different behavioural tests/session were performed 24 hours apart from each other. All tests were scored by an experienced observer who was blind to the experimental conditions of the animals.
The MWM is a circular black PVC plastic pool of 160 cm diameter which is filled to a depth of either 2.5 cm above a 10 cm diameter hidden platform water at 25±1° C. The platform is located in the centre of the South-West quadrant during the first 3 sessions and changed to North-East quadrant for the remaining sessions. Visual cues are placed in the main 4 cardinal points, consisting of large black and white symbols that serve as orientation landmarks for the rats. […] The latency to find the escape platform, speed and strategic path used by the animal to locate the platform are recorded. […]

post-SE rats [2] = assay: Kainic acid induced post-status epilepticus model, video-EEG seizure analysis; type: in vivo, rat; details: osmotic pump 4 weeks; Z944 60 mg/kg/day, levetiracetam 200 mg/kg/day
Description: Pumps were filled with either Z944 to deliver a daily dose of 60 mg/kg, levetiracetam to deliver a daily dose of 200 mg/kg or vehicle. For the drug tolerability study, osmotic pumps continuously either Z944, levetiracetam or vehicle for 7 days and for the post-SE study osmotic pumps delivered continuously the different treatments for 28 days.
FIG. 11 summarizes the different methods used on this experimental paradigm.
Animals were implanted with subdural EEG recording electrodes and one week after surgery, the animals were connected using cables that allowed them free movement around their cage. A repeated low dose KA administration protocol was used. Rats were injected i.p. with an initial dose of KA 7.5 mg/kg plus 3 ml of normal saline to prevent dehydration. Animals were monitored for 45 minutes for EEG and behavioural seizures based on the Racine scale. […] This was repeated up to 2 times every 45 minutes. An animal was eliminated from the experiment if it didn't show a stable self-sustained SE after a maximum KA total dose of 15 mg/kg. Two sham groups were treated identically but received saline injections instead of KA. After four hours of sustained electroencephalographic and behavioural seizures the animals were randomly allocated to one of the five treatment groups: sham+vehicle (n=6), sham+Z944 (n=6), post-SE+vehicle (n=8), post-SE+Z944 (n=8), post-SE+levetiracetam (n=9).
Animals were anesthetized and implanted with subcutaneous osmotic pumps containing either vehicle Z944 (60 mg/kg/day), or levetiracetam (200 mg/kg/day) that delivered the treatment continuously for 4 weeks. Immediately after the pump implantation, SE was stopped with diazepam (5 mg/kg/dose).
vEEG recordings commenced at least 4 h prior the induction of SE to provide baseline recordings. The video-EEG recordings continued for the whole duration of the treatment period, i.e. four weeks after the termination of the SE. […] EEG analysis was performed in a blinded manner and confirmed by two different observers. All EEG recordings were visually and manually annotated using Profusion 3 software. A seizure was defined as an episode of rhythmic spiking activity that was three times the baseline amplitude and a frequency >5 Hz that lasted at least 10 s. The end of a seizure was determined as the last spike. The average number of seizures per day, average seizure duration and seizure class (severity) were analysed.

[3] = system: absence seizures in patients; details: cited from earlier work

Sequence of hCaV3.2 (O95180 whole entry): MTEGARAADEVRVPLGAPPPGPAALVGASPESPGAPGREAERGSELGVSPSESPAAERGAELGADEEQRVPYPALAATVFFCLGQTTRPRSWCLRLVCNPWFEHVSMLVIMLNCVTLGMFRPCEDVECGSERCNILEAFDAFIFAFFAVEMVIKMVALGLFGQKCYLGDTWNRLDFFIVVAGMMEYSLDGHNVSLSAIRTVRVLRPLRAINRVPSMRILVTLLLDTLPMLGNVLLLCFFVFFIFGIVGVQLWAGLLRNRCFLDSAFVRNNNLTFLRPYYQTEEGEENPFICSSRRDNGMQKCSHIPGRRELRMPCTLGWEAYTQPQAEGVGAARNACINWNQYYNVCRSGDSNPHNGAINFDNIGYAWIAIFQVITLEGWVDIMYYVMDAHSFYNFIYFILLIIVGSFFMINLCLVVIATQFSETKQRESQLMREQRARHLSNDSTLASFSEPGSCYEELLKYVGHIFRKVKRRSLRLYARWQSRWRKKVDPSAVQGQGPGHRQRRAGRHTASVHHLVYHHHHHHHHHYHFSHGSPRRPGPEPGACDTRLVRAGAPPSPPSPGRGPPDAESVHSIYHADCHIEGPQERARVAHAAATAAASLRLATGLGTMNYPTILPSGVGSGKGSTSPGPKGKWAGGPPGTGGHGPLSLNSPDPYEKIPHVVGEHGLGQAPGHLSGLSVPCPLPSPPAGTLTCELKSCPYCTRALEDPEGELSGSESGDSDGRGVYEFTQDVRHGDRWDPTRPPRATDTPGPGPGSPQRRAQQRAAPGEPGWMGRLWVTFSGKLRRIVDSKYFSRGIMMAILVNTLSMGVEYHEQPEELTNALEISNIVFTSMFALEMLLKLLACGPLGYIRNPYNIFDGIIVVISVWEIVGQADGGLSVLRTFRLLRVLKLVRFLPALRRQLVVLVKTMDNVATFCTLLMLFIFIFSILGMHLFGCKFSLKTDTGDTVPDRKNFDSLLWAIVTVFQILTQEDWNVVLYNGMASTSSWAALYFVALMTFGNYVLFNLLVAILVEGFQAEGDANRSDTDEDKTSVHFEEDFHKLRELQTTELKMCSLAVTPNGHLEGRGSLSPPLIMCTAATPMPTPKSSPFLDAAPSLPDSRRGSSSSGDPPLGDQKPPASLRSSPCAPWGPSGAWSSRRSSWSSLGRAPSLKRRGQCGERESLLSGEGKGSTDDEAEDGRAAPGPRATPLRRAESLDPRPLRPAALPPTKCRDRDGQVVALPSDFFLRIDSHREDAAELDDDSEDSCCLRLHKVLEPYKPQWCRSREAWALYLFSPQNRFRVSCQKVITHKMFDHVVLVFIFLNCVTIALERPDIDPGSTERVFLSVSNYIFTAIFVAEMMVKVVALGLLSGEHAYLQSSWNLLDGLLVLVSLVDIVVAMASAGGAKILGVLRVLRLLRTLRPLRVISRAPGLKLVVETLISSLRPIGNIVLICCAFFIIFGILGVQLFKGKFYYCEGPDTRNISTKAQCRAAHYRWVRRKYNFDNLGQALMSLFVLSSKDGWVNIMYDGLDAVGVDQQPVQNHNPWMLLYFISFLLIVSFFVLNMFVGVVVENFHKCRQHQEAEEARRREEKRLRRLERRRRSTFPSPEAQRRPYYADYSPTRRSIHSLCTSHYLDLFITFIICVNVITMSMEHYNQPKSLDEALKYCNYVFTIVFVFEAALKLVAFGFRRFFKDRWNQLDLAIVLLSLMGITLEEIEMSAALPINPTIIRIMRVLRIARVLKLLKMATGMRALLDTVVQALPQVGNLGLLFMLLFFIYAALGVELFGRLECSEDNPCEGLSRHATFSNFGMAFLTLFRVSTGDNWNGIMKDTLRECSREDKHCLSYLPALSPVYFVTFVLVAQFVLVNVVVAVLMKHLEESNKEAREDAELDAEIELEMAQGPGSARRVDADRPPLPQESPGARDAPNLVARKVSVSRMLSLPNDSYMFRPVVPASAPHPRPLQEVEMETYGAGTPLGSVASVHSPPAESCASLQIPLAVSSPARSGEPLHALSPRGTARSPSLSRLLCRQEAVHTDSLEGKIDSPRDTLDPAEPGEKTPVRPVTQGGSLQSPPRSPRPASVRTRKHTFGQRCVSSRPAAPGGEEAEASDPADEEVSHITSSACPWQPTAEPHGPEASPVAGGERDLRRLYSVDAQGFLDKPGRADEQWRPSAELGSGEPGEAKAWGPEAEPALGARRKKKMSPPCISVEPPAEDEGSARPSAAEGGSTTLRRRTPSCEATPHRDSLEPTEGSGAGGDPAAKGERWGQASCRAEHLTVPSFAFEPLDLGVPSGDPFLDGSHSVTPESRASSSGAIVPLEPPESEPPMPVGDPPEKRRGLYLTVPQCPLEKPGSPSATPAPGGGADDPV

IC50 (hCaV3.2) | slope of the concentration-inhibition curve (hCaV3.2) | SMILES | primary after discharge (fully kindled rats; IP, CBZ 30 mg/kg) | also measured
0.00012 mM | 0.8 | CC(C)(C)NC(=O)CN1CCC(CNC(=O)c2cccc(Cl)c2)CC1 [Z941] | – | –
70 mM | – | CCC1(C)CC(=O)NC1=O (stereo not drawn) [Ethosuximide, ethosuximide, reference compound] | did not affect the primary after discharge | –
– | – | NC(=O)N1c2ccccc2C=Cc2ccccc21 [Carbamazepine, carbamazepine, reference compound] | did not affect the primary after discharge | seizure class elicited (Racine scale) (fully kindled rats; IP, Z944 5, 10, 30, 100 mg/kg, CBZ 30 mg/kg, compared to vehicle): significantly reduced the class of seizure elicited; adverse effects (sedation scale 0-4) compared to vehicle (fully kindled rats; Z944 100 mg/kg, CBZ 30 mg/kg IP, p<0.01): significantly higher adverse effects
– | – | CC[C@@H](C(N)=O)N1CCCC1=O [levetiracetam, reference compound] | – | time to find the hidden platform (cognition) (post-SE rats [1]): took significantly longer to find the hidden platform; neurological adverse effects after prolonged treatment (post-SE rats [2]): only transient and minor neurological adverse effects
– | 4.4 | CCCC(CCC)C(=O)[O-].[Na+] [Valproate, sodium valproate] | – | patients whose seizures were completely controlled ([3]; at 12 months): 44%; patients whose seizures were completely controlled ([3]; at 16 weeks, video-EEG recordings): 58%

Reference: patent US20210128537A1, “T-TYPE CALCIUM CHANNEL MODULATORS AND METHODS OF USE THEREOF” (Praxis Precision Medicines, inc., priority 2016, published 2021)
